# Article PMC8952208, “Synthesis, Antiplasmodial, and Antileukemia Activity of Dihydroartemisinin–HDAC Inhibitor Hybrids as Multitarget Drugs” (Pharmaceuticals, 2022)
# “Also recorded” adds a separate entry of the source.
# Key:
# P. falciparum Dd2 R539T = assay: In vitro P. falciparum growth inhibition assay (HRP2), Dd2 R539T; type: cell-based; conditions: Plasmodium falciparum, DD2, 72 h, read-out: PfDd2 R539T IC50
# Procedure: Antiplasmodial activity of DHA–HDACi hybrids was evaluated against the asexual stages of the laboratory P. falciparum strains (3D7, chloroquine-sensitive strain, and Dd2, chloroquine-resistant strain, and Dd2 R539T (MRA-1255), provided by BEI Resources carrying a kelch13-mutation that conveys partial artemisinin resistance), using the histidine-rich protein 2 (HRP2) assay, as previously described. In brief: 96-well plates were precoated with the tested compounds in a three-fold serial dilution before ring-stage parasites were added in complete culture medium at a hematocrit of 1.5% and a parasitaemia of 0.05%. After three days of incubation at 37 °C, 5% CO2 and 5% O2 plates were frozen until analyzed by HRP2-ELISA. All compounds were evaluated in duplicate in at least two independent experiments. The IC50 was determined by nonlinear regression analysis of log concentration-response curves using the drc-package v3.0.1 [40] of R v4.0.5..
# HPBALL cells = assay: CellTiter-Glo cell viability assay, HPBALL; type: cell-based, human; conditions: for IC50: Homo sapiens, HPBALL, T-ALL, 72 h, CellTiter-Glo, n = 3; for Selectivity index range healthy fibroblasts vs HPB ALL: SI = (healthy fibroblast IC50)/(leukemia cell line IC50), range over two fibroblasts
# Procedure: (§1) Healthy individually-derived fibroblasts were cultured in DMEM supplemented with 10% FCS. Regular cell line authentication was performed short tandem repeat (STR) analysis (DNA fingerprinting), followed by comparison with the original DSMZ cell line database.
# (§2) Cell viability assay was performed with leukemic cell lines after 72 h incubation with the respective inhibitors using ATP-based CellTiter-Glo luminescent assay (Promega, Madison, WI, USA).
# K562 cells = assay: CellTiter-Glo cell viability assay, K562; type: cell-based, human; conditions: for IC50: Homo sapiens, K562, CML, 72 h, CellTiter-Glo, n = 3; for Selectivity index range healthy fibroblasts vs K562: SI = (healthy fibroblast IC50)/(leukemia cell line IC50), range over two fibroblasts
# Procedure: as §1, §2
# MOLM13 cells = assay: CellTiter-Glo cell viability assay, MOLM13; type: cell-based, human; conditions: for IC50: Homo sapiens, MOLM-13, AML, 72 h, CellTiter-Glo, n = 3; for Selectivity index range healthy fibroblasts vs MOLM13: SI = (healthy fibroblast IC50)/(leukemia cell line IC50), range over two fibroblasts
# Procedure: as §1, §2
# human HDAC1 (hHDAC1) = target: T1, human HDAC1 (hHDAC1) (Homo sapiens, UniProt Q13547); assay: In vitro human HDAC1 assay (ZMAL substrate); type: biochemical
# T1 construct: purchased BPS Bioscience Inc. 50051
# Procedure: OptiPlate-96 black microplates (Perkin Elmer Inc., Waltham, MA, USA) were used with an assay volume of 50 µL. […] After an incubation time of 90 min, 50 µL of 0.4 mg/mL trypsin in trypsin buffer (50 mM Tris-HCl, pH 8.0, and 100 mM NaCl) was added, followed by further incubation at 37 °C for 30 min.
# HL60 cells = assay: CellTiter-Glo cell viability assay, HL60; type: cell-based, human; conditions: for IC50: Homo sapiens, HL-60, AML, 72 h, CellTiter-Glo, n = 3; for Selectivity index range healthy fibroblasts vs HL60: SI = (healthy fibroblast IC50)/(leukemia cell line IC50), range over two fibroblasts
# Procedure: as §1, §2
# [1] = tested on: artemisinin-resistant P. falciparum Dd2 R539T; assay: Ring-stage survival assay (0–3 h), Dd2 R539T; type: cell-based; conditions: 700 nM, 6 h pulse; relative to DMSO control; compared with DHA
# Procedure: (§3) The effect of DHA–HDACi hybrids on artemisinin-resistant asexual stages of P. falciparum was assessed using the ring-stage survival assay as previously described with minor modifications. Briefly, mature schizonts of the artemisinin-sensitive strain Dd2 and the partial artemisinin-resistant strain Dd2 R539Twere isolated using magnetic column separation. The schizonts were then put with 10 mL complete medium and 200 µL 0^+ erythrocytes in a T-25 cell culture flask and incubated for exactly 3 h (37 °C, 5% O2, and 5% CO2). Next, parasites were synchronized with 5% (w/v) D-sorbitol solution yielding a culture containing only newly-invaded (0–3 h) ring-stage parasites.
# (§4) Ring-stage parasites were added at 2% hematocrit and 0.5% parasitemia to a 48-well plate precoated with complete medium containing either DHA (Sigma-Aldrich) (positive control) or the tested DHA–HDACi hybrids at a final concentration of 700 nM or DMSO (negative control). […] Parasitemia was assessed by Giemsa-stained thin blood smears by two independent readers (10,000 erythrocytes per slide). If the results were discordant by more than 50%, a third independent read was conducted. The survival was calculated as the percentage of treated versus the untreated controls (DMSO). […] Means and standard deviations were calculated using Microsoft Excel. […]
# [2] = tested on: acetylation of α-tubulin (marker of HDAC6 inhibition); assay: Immunoblotting, acetyl-α-tubulin in K562 cells; type: cell-based, human; conditions: 0.4 µM, 24 h
# Procedure: (§5) K562 cells were treated with the indicated concentration of the compounds or vehicle control (DMSO) for 24 h. The recovered cell pellets were lysed with RIPA buffer (50 mM Tris-HCl pH 8.0, 1% Triton X-100, 0.5% sodium deoxycholate, 0.1% SDS, 150 mM sodium chloride, and 2 mM EDTA), supplemented with protease and phosphatase inhibitors (Thermofischer Scientific, Waltham, MA, USA). An equal amount of total protein (20 µg) was resolved by SDS-PAGE and followed by transfer on nitrocellulose membrane (Sigma-Aldrich). PageRuler prestained protein ladder, 10 kDa to 180 kDa (Thermofisher Scientific, Waltham, MA, USA) was used as a protein molecular weight marker.
# [3] = tested on: acetylation of histone H3 (marker of HDAC1 inhibition); assay: Immunoblotting, acetyl-histone H3 in K562 cells; type: cell-based, human; conditions: 0.4 µM, 24 h
# Procedure: as §5
# [4] = tested on: artemisinin-sensitive P. falciparum Dd2; assay: Ring-stage survival assay (0–3 h), Dd2; type: cell-based; conditions: 700 nM, 6 h pulse; relative to DMSO control
# Procedure: as §3, §4
# T1 sequence (Q13547 whole entry): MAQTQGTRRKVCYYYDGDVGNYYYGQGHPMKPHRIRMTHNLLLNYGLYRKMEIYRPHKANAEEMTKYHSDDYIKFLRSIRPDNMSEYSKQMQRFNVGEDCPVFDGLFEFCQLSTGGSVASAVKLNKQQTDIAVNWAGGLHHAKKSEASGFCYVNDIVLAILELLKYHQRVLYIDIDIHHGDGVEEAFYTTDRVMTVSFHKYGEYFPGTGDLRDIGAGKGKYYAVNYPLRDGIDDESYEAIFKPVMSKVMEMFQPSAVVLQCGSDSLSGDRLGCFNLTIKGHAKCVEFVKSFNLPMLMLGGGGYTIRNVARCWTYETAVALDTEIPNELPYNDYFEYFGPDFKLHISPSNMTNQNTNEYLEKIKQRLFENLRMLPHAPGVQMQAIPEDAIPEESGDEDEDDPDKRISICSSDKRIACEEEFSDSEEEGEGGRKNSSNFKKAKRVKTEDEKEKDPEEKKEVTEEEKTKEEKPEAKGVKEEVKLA
smiles,measurement,setting,value
"C[C@H]1[C@@H](SCc2ccc(C(=O)NO)cc2)O[C@@H]2O[C@@]3(C)CC[C@H]4[C@H](C)CC[C@@H]1[C@@]24OO3 [(α)-7c, N-Hydroxy-4-((((3R,5aS,6R,8aS,9R,10R,12S,12aR)-3,6,9-trimethyldecahydro-12H-3,12-epoxy[1,2]dioxepino[4,3-i]isochromen-10-yl)thio)methyl)benzamide]",IC50,P. falciparum Dd2 R539T,0.0033 ± 0.0022 µM
same,IC50,HPBALL cells,6.72 ± 0.44 µM
same,Selectivity index range healthy fibroblasts vs HPB ALL,HPBALL cells,1.1-1.9
same,IC50,K562 cells,0.62 ± 0.06 µM
same,Selectivity index range healthy fibroblasts vs K562,K562 cells,12-21
same,IC50,MOLM13 cells,0.33 ± 0.11 µM
same,Selectivity index range healthy fibroblasts vs MOLM13,MOLM13 cells,23-39
same,IC50,human HDAC1 (hHDAC1),2 ± 0.2 µM
same,IC50,HL60 cells,1.02 ± 0.27 µM
same,Selectivity index range healthy fibroblasts vs HL60,HL60 cells,7-12
same,survival of artemisinin-resistant Dd2 R539T parasites in ring-stage survival assay,[1],significantly more active than DHA alone; also recorded: lowest survival
"C[C@H]1[C@H](SCc2ccc(C(=O)NO)cc2)O[C@@H]2O[C@@]3(C)CC[C@H]4[C@H](C)CC[C@@H]1[C@@]24OO3 [(β)-7c, N-Hydroxy-4-((((3R,5aS,6R,8aS,9R,10S,12S,12aR)-3,6,9-trimethyldecahydro-12H-3,12-epoxy[1,2]dioxepino[4,3-i]isochromen-10-yl)thio)methyl)benzamide]",IC50,P. falciparum Dd2 R539T,0.0026 ± 0.002 µM
same,IC50,HPBALL cells,12.3 ± 0.57 µM
same,Selectivity index range healthy fibroblasts vs HPB ALL,HPBALL cells,1.2-1.4
same,acetylation of α-tubulin (immunoblot),[2],induced acetylation of α-tubulin
same,IC50,K562 cells,0.41 ± 0.11 µM
same,Selectivity index range healthy fibroblasts vs K562,K562 cells,36-43
same,IC50,MOLM13 cells,0.38 ± 0.07 µM
same,Selectivity index range healthy fibroblasts vs MOLM13,MOLM13 cells,39-47
same,IC50,human HDAC1 (hHDAC1),2.79 ± 0.14 µM
same,acetylation of histone H3 (immunoblot),[3],did not induce acetylation of histone H3
same,IC50,HL60 cells,2.34 ± 0.46 µM
same,Selectivity index range healthy fibroblasts vs HL60,HL60 cells,6-8
"C[C@@H]1CC[C@H]2[C@@H](C)C(OCc3ccc(/C=C/C(=O)NO)cc3)O[C@@H]3O[C@@]4(C)CC[C@@H]1[C@]32OO4 (stereo partly drawn) [Compound 7a, (E)-N-Hydroxy-3-(4-((((3R,5aS,6R,8aS,9R,12R,12aR)-3,6,9-trimethyldecahydro-12H-3,12-epoxy[1,2]dioxepino[4,3-i]isochromen-10-yl)oxy)methyl)phenyl)acrylamide]",IC50,P. falciparum Dd2 R539T,0.0019 ± 0.0014 µM
same,IC50,HPBALL cells,1.36 ± 0.03 µM
same,Selectivity index range healthy fibroblasts vs HPB ALL,HPBALL cells,5-10
same,IC50,K562 cells,0.31 ± 0.06 µM
same,Selectivity index range healthy fibroblasts vs K562,K562 cells,21-42
same,IC50,MOLM13 cells,0.22 ± 0.04 µM
same,Selectivity index range healthy fibroblasts vs MOLM13,MOLM13 cells,29-60
same,IC50,human HDAC1 (hHDAC1),0.546 ± 0.0003 µM
same,IC50,HL60 cells,1.33 ± 0.14 µM
same,Selectivity index range healthy fibroblasts vs HL60,HL60 cells,5-10
"C[C@H]1[C@@H](O)O[C@@H]2O[C@@]3(C)CC[C@H]4[C@H](C)CC[C@@H]1[C@@]24OO3 [DHA, dihydroartemisinin]",IC50,HPBALL cells,9.93 ± 1.51 µM
same,acetylation of α-tubulin (immunoblot),[2],affected the acetylation level neither of α-tubulin nor of histone H3
same,IC50,K562 cells,2.4 ± 0.66 µM
same,IC50,MOLM13 cells,0.69 ± 0.17 µM
same,IC50,human HDAC1 (hHDAC1),> 10 µM
same,acetylation of histone H3 (immunoblot),[3],affected the acetylation level neither of α-tubulin nor of histone H3
same,survival of artemisinin-sensitive Dd2 parasites in ring-stage survival assay,[4],≤ 0.25%
same,IC50,HL60 cells,3.57 ± 1.04 µM
